In patent US11459315B2, “Modulators of methyl modifying enzymes, compositions and uses thereof” (Constellation Pharmaceuticals, Inc., priority 2017, dated 2022) one finds IC50 and EC50 data, which are given here for 20 compounds.

The structures appear in SMILES notation. Like-named read-outs stand apart in the source and are kept apart here.

One assay deals with PRC2 containing wt EZH2 (Homo sapiens (Human), UniProt Q15910). The assay is described as follows: EZH2 biochemical assay (IC50), 3H-SAM incorporation into biotinylated H3 peptide. To be noted: 30 pM PRC2 containing wt EZH2, 3-5 h pre-incubation. In a few lines:
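Activity was measured as ³H-methyl transfer to a biotinylated H3K27me1 peptide over 18-22 h at room temperature, with capture on streptavidin flash plates. The 30 pM wt-EZH2 PRC2 complex was first pre-incubated 3-5 h with compound, 450 nM SAM/450 nM ³H-SAM and 2 µM H3K27me3 activator (pH 8.5, 0.8% DMSO). Four-parameter fits gave IC50.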

Assay [1] concerns H3K27me3 mark in HeLa cells (EZH2). In words: H3K27me3 Alpha Hela Assay (AlphaLISA). Format: cell-based. To be noted: Homo sapiens, HeLa, 72 h, HeLa cells, 72 hrs; read-out: EZH2 Cell H3K27me3 Alpha HeLa (EC50 K27me3). In a few lines:
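HeLa cells (1,000/well) treated with ten 3-fold compound doses for 72 h at 37 °C; lysates extracted and H3K27me3 detected by AlphaLISA with anti-K27me3 acceptor beads, biotinylated anti-H3 (3 nM) and streptavidin donor beads. EC50 from DMSO-normalized dose-response curves; duplicate plate assessed viability.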

As usually defined, the IC50 is the concentration that inhibits the measured activity by half. One may read the EC50 as the concentration giving half of the maximal effect.

Sequence of PRC2 containing wt EZH2 (Q15910 whole entry): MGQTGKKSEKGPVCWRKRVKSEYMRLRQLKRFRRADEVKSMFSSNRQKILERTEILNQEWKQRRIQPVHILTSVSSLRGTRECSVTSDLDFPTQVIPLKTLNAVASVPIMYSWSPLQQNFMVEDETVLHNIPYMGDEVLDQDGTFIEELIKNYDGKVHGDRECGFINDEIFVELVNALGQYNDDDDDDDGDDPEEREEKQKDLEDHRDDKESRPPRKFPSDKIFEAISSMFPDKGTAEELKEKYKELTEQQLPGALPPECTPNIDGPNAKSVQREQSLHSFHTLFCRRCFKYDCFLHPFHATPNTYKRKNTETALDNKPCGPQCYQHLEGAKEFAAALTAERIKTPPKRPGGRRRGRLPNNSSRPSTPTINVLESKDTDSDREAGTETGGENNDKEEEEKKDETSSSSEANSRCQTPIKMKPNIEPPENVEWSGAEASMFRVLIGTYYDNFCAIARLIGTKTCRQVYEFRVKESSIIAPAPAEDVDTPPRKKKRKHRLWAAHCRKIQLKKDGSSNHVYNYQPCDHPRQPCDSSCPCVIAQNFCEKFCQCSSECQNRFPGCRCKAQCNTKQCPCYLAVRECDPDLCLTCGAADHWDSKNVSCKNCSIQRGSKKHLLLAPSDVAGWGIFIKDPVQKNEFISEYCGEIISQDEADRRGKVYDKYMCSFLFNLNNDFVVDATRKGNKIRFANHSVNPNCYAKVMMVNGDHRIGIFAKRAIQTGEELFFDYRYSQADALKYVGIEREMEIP
Sequence of PRC2 containing wt EZH2 (O75530 whole entry partner): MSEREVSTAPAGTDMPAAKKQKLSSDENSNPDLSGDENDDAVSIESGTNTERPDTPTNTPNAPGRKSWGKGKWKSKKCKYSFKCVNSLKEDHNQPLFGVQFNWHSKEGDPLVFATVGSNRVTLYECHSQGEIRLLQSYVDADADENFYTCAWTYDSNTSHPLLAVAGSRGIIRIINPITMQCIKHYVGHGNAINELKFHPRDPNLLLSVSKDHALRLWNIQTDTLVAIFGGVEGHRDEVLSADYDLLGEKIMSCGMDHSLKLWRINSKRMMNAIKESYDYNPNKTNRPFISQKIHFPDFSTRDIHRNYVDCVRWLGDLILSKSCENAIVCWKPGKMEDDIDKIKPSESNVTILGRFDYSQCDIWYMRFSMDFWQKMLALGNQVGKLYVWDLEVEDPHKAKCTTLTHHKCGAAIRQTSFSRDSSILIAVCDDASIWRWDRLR
Sequence of PRC2 containing wt EZH2 (Q15022 whole entry partner): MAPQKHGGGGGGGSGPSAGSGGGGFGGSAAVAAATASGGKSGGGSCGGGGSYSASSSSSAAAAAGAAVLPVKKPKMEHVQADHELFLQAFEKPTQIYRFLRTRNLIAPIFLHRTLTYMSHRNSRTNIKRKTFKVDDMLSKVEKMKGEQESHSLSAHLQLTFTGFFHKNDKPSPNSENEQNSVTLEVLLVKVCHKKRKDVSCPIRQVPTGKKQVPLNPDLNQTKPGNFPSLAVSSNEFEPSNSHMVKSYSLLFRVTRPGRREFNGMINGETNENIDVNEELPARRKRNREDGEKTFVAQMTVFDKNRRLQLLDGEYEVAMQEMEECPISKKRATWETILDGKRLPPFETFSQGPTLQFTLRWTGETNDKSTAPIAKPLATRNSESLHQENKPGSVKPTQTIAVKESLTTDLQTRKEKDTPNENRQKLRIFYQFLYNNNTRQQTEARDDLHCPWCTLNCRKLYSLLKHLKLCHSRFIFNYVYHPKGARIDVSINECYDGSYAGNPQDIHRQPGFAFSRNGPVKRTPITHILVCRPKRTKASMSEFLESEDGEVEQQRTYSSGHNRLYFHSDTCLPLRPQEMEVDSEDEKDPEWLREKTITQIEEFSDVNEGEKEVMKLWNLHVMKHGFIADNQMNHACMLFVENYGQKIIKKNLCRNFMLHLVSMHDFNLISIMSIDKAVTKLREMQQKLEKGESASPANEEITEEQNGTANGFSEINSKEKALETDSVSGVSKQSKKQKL
Sequence of PRC2 containing wt EZH2 (Q09028 whole entry partner): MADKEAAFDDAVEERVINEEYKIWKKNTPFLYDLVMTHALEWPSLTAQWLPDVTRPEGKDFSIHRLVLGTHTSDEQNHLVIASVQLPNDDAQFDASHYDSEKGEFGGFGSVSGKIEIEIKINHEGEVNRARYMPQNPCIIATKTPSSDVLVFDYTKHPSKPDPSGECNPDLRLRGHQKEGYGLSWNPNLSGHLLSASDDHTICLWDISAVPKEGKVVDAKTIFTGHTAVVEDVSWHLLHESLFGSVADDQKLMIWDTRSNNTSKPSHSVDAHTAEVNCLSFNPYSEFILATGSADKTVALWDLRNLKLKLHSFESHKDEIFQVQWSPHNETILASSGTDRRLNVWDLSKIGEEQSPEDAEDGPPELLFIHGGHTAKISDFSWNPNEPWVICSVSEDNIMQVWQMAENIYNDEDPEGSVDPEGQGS
Sequence of PRC2 containing wt EZH2 (Q6ZN18 whole entry partner): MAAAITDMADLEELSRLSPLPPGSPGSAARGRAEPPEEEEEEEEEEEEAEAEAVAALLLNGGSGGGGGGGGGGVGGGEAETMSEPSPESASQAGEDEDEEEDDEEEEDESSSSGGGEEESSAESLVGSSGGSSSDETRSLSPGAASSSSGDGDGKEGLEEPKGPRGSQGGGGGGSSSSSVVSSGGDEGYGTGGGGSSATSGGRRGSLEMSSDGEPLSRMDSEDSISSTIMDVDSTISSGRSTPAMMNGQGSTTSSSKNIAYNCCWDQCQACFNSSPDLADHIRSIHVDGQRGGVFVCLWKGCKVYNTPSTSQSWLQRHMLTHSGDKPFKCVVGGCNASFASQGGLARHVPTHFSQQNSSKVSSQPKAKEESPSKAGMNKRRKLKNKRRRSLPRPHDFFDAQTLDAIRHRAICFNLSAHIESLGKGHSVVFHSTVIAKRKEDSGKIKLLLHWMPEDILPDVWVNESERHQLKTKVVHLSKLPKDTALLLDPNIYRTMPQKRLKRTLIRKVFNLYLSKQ

At PRC2 containing wt EZH2 (EZH2 (IC50)), `CSc1cc(C)[nH]c(=O)c1CNC(=O)c1c(C)n([C@H](C)C2CCC(N3CC(C)(F)C3)CC2)c2ncccc12` (stereo partly drawn) [Example 80, 1-((R)-1-(4-(3-fluoro-3-methylazetidin-1-yl)cyclohexyl)ethyl)-2-methyl-N-((6-methyl-4-(methylthio)-2-oxo-1,2-dihydropyridin-3-yl)methyl)-1H-pyrrolo[2,3-b]pyridine-3-carboxamide] registered an IC50 below 0.5 nM. Besides, the EC50 in assay [1] lay in the range of 10 to 100 nM.

Consider `CSc1cc(C)[nH]c(=O)c1CNC(=O)c1c(C)n([C@H](C)C2CCN(C3CC(F)(F)C3)CC2)c2ccccc12` [Example 81, (R)-1-(1-(1-(3,3-difluorocyclobutyl)piperidin-4-yl)ethyl)-2-methyl-N-((6-methyl-4-(methylthio)-2-oxo-1,2-dihydropyridin-3-yl)methyl)-1H-indole-3-carboxamide], for which the IC50 on PRC2 containing wt EZH2 (EZH2 (IC50)) is below 0.5 nM. Moreover, the EC50 in assay [1] lay within 10 to 100 nM.

The compound `CSc1cc(C)[nH]c(=O)c1CNC(=O)c1c(C)n([C@H](C)C2CCC(N3CC(F)C3)CC2)c2c(F)cccc12` (stereo partly drawn) [Example 82, 7-fluoro-1-((R)-1-(4-(3-fluoroazetidin-1-yl)cyclohexyl)ethyl)-2-methyl-N-((6-methyl-4-(methylthio)-2-oxo-1,2-dihydropyridin-3-yl)methyl)-1H-indole-3-carboxamide] yielded an IC50 on PRC2 containing wt EZH2 (EZH2 (IC50)) below 0.5 nM. Besides, in assay [1], the EC50 was below 10 nM.

`CSc1cc(C)[nH]c(=O)c1CNC(=O)c1c(C)n([C@H](C)C2CCC(N3CC(F)C3)CC2)c2cc(F)ccc12` (stereo partly drawn) [Example 83, (R)-6-fluoro-1-(1-(4-(3-fluoroazetidin-1-yl)cyclohexyl)ethyl)-2-methyl-N-((6-methyl-4-(methylthio)-2-oxo-1,2-dihydropyridin-3-yl)methyl)-1H-indole-3-carboxamide] displayed an IC50 against PRC2 containing wt EZH2 (EZH2 (IC50)) below 0.5 nM. For the same compound, the EC50 in assay [1] is below 10 nM.

`CCSc1cc(C)[nH]c(=O)c1CNC(=O)c1c(C)n([C@H](C)C2CCN(CC(F)(F)F)CC2)c2ccccc12` [Example 86, (R)-N-((4-(ethylthio)-6-methyl-2-oxo-1,2-dihydropyridin-3-yl)methyl)-2-methyl-1-(1-(1-(2,2,2-trifluoroethyl)piperidin-4-yl)ethyl)-1H-indole-3-carboxamide] had an IC50 on PRC2 containing wt EZH2 (EZH2 (IC50)) of 0.5 to 5 nM. In assay [1], the EC50 fell in the range of 10 to 100 nM.

Compound `CSc1cc(C)[nH]c(=O)c1CNC(=O)c1c(C)n([C@H](C)C2CCN(CC(F)(F)F)CC2)c2cccc(C)c12` [Example 87, (R)-2,4-dimethyl-N-((6-methyl-4-(methylthio)-2-oxo-1,2-dihydropyridin-3-yl)methyl)-1-(1-(1-(2,2,2-trifluoroethyl)piperidin-4-yl)ethyl)-1H-indole-3-carboxamide] returned an IC50 against PRC2 containing wt EZH2 (EZH2 (IC50)) of 0.5 to 5 nM. Moreover, the EC50 in assay [1] is below 10 nM.

`CSc1cc(C)[nH]c(=O)c1CNC(=O)c1c(C)n([C@H](C)C2CCN(CCC(F)(F)F)CC2)c2ccccc12` [Example 88, (R)-2-methyl-N-((6-methyl-4-(methylthio)-2-oxo-1,2-dihydropyridin-3-yl)methyl)-1-(1-(1-(3,3,3-trifluoropropyl)piperidin-4-yl)ethyl)-1H-indole-3-carboxamide] yielded an IC50 at PRC2 containing wt EZH2 (EZH2 (IC50)) below 0.5 nM. For the same compound, the EC50 in assay [1] lay within 10 to 100 nM.

Turning to `CSc1cc(C)[nH]c(=O)c1CNC(=O)c1c(C)n([C@H](C)C2CCC(NCC(F)(F)F)CC2)c2ncncc12` (stereo partly drawn) [Example 89, 6-methyl-N-((6-methyl-4-(methylthio)-2-oxo-1,2-dihydropyridin-3-yl)methyl)-7-((R)-1-(4-((2,2,2-trifluoroethyl)amino)cyclohexyl)ethyl)-7H-pyrrolo[2,3-d]pyrimidine-5-carboxamide], the IC50 at PRC2 containing wt EZH2 (read-out: EZH2 (IC50)) was below 0.5 nM. Besides, in assay [1], the EC50 was 10 to 100 nM.

Compound `CSc1cc(C)[nH]c(=O)c1CNC(=O)c1c(C)n([C@H](C)C2CCN(CC(F)(F)F)CC2)c2cc(F)ccc12` [Example 92, (R)-6-fluoro-2-methyl-N-((6-methyl-4-(methylthio)-2-oxo-1,2-dihydropyridin-3-yl)methyl)-1-(1-(1-(2,2,2-trifluoroethyl)piperidin-4-yl)ethyl)-1H-indole-3-carboxamide] displayed a concentration for half-maximal inhibition (IC50) on PRC2 containing wt EZH2 (EZH2 (IC50)) below 0.5 nM. Besides, the EC50 in assay [1] is below 10 nM.

`COC1CN(C2CCC([C@@H](C)n3c(C)c(C(=O)NCc4c(SCF)cc(C)[nH]c4=O)c4ccccc43)CC2)C1` (stereo partly drawn) [Example 93, N-((4-((fluoromethyl)thio)-6-methyl-2-oxo-1,2-dihydropyridin-3-yl)methyl)-1-((R)-1-(4-(3-methoxyazetidin-1-yl)cyclohexyl)ethyl)-2-methyl-1H-indole-3-carboxamide]: the IC50 at PRC2 containing wt EZH2 (read-out: EZH2 (IC50)) was below 0.5 nM. In addition, the EC50 in assay [1] fell in the range of 10 to 100 nM.

With `CSc1cc(C)[nH]c(=O)c1CNC(=O)c1c(C)n([C@H](C)C2CCC(N3CCC(F)(F)C3)CC2)c2ccccc12` (stereo partly drawn) [Example 95, 1-((R)-1-(4-(3,3-difluoropyrrolidin-1-yl)cyclohexyl)ethyl)-2-methyl-N-((6-methyl-4-(methylthio)-2-oxo-1,2-dihydropyridin-3-yl)methyl)-1H-indole-3-carboxamide], the IC50 at PRC2 containing wt EZH2 (read-out: EZH2 (IC50)) is below 0.5 nM. In addition, the EC50 in assay [1] is below 10 nM.

As for `CSc1cc(C)[nH]c(=O)c1CNC(=O)c1c(C)n([C@H](C)C2CCC(N3CC(C(F)F)C3)CC2)c2ncccc12` (stereo partly drawn) [Example 96, 1-((R)-1-(4-(3-(difluoromethyl)azetidin-1-yl)cyclohexyl)ethyl)-2-methyl-N-((6-methyl-4-(methylthio)-2-oxo-1,2-dihydropyridin-3-yl)methyl)-1H-pyrrolo[2,3-b]pyridine-3-carboxamide], the IC50 at PRC2 containing wt EZH2 (read-out: EZH2 (IC50)) is below 0.5 nM. Further, the EC50 in assay [1] is below 10 nM.

`CSc1cc(C)[nH]c(=O)c1CNC(=O)c1c(C)n([C@H](C)C2CCN(CC(F)(F)F)CC2)c2cccc(C#N)c12` [Example 97, (R)-4-cyano-2-methyl-N-((6-methyl-4-(methylthio)-2-oxo-1,2-dihydropyridin-3-yl)methyl)-1-(1-(1-(2,2,2-trifluoroethyl)piperidin-4-yl)ethyl)-1H-indole-3-carboxamide]: on PRC2 containing wt EZH2 (read-out: EZH2 (IC50)), the IC50 is above 5 nM. Further, in assay [1], the EC50 was above 100 nM.

Compound `CSc1cc(C)[nH]c(=O)c1CNC(=O)c1c(C)n([C@H](C)C2CCC(N3CC(F)C3)CC2)c2ncc(Cl)cc12` (stereo partly drawn) [Example 98, 5-chloro-1-((R)-1-(4-(3-fluoroazetidin-1-yl)cyclohexyl)ethyl)-2-methyl-N-((6-methyl-4-(methylthio)-2-oxo-1,2-dihydropyridin-3-yl)methyl)-1H-pyrrolo[2,3-b]pyridine-3-carboxamide] gave an IC50 on PRC2 containing wt EZH2 (EZH2 (IC50)) below 0.5 nM. The EC50 in assay [1] was below 10 nM.

For the compound `COC1CN(C2CCC([C@@H](C)n3c(C)c(C(=O)NCc4c(SC5CC5)cc(C)[nH]c4=O)c4ccccc43)CC2)C1` (stereo partly drawn) [Example 99, N-((4-(cyclopropylthio)-6-methyl-2-oxo-1,2-dihydropyridin-3-yl)methyl)-1-((R)-1-(4-(3-methoxyazetidin-1-yl)cyclohexyl)ethyl)-2-methyl-1H-indole-3-carboxamide], on PRC2 containing wt EZH2 (read-out: EZH2 (IC50)), the IC50 is below 0.5 nM. In addition, the EC50 in assay [1] was 10 to 100 nM.

With `CSc1cc(C)[nH]c(=O)c1CNC(=O)c1c(C)n([C@H](C)C2CCC(N3CC(OC4CC4)C3)CC2)c2ccccc12` (stereo partly drawn) [Example 100, 1-((R)-1-(4-(3-cyclopropoxyazetidin-1-yl)cyclohexyl)ethyl)-2-methyl-N-((6-methyl-4-(methylthio)-2-oxo-1,2-dihydropyridin-3-yl)methyl)-1H-indole-3-carboxamide], the IC50 on PRC2 containing wt EZH2 (read-out: EZH2 (IC50)) is below 0.5 nM. Further, the EC50 in assay [1] was below 10 nM.

Take `COc1cccc2c1c(C(=O)NCc1c(SC)cc(C)[nH]c1=O)c(C)n2[C@H](C)C1CCN(CC(F)(F)F)CC1` [Example 101, (R)-4-methoxy-2-methyl-N-((6-methyl-4-(methylthio)-2-oxo-1,2-dihydropyridin-3-yl)methyl)-1-(1-(1-(2,2,2-trifluoroethyl)piperidin-4-yl)ethyl)-1H-indole-3-carboxamide]: the IC50 at PRC2 containing wt EZH2 (read-out: EZH2 (IC50)) fell in the range of 0.5 to 5 nM. In addition, the EC50 in assay [1] fell in the range of 10 to 100 nM.

The compound `CSc1cc(C)[nH]c(=O)c1CNC(=O)c1c(C)n([C@H](C)C2CCN(CC(F)(F)F)CC2)c2cccc(Cl)c12` [Example 103, (R)-4-chloro-2-methyl-N-((6-methyl-4-(methylthio)-2-oxo-1,2-dihydropyridin-3-yl)methyl)-1-(1-(1-(2,2,2-trifluoroethyl)piperidin-4-yl)ethyl)-1H-indole-3-carboxamide] registered a half-maximal inhibitory concentration (IC50) against PRC2 containing wt EZH2 (EZH2 (IC50)) below 0.5 nM. The EC50 in assay [1] was below 10 nM.

As to `Cc1cc(SC(F)F)c(CNC(=O)c2c(C)n([C@H](C)C3CCN(CC(F)(F)F)CC3)c3ccccc23)c(=O)[nH]1` [Example 105, (R)-N-((4-((difluoromethyl)thio)-6-methyl-2-oxo-1,2-dihydropyridin-3-yl)methyl)-2-methyl-1-(1-(1-(2,2,2-trifluoroethyl)piperidin-4-yl)ethyl)-1H-indole-3-carboxamide], on PRC2 containing wt EZH2 (read-out: EZH2 (IC50)), the IC50 was 0.5 to 5 nM. Besides, in assay [1], the EC50 fell in the range of 10 to 100 nM.

On to `CSc1cc(C)[nH]c(=O)c1CNC(=O)c1c(C)n([C@H](C)C2CCC(N3CC[C@@H](F)C3)CC2)c2ncc(Cl)cc12` (stereo partly drawn) [Example 107, 5-chloro-1-((R)-1-(4-((R)-3-fluoropyrrolidin-1-yl)cyclohexyl)ethyl)-2-methyl-N-((6-methyl-4-(methylthio)-2-oxo-1,2-dihydropyridin-3-yl)methyl)-1H-pyrrolo[2,3-b]pyridine-3-carboxamide], for which the IC50 at PRC2 containing wt EZH2 (read-out: EZH2 (IC50)) is below 0.5 nM. Moreover, the EC50 in assay [1] is 10 to 100 nM.
